# Data reported in US4925834A, “3-methylene-4-androsten-17-ones, process for their production and pharmaceutical preparations containing them” (Schering Aktiengesellschaft, priority 1987, dated 1990).
# System: aromatase
# Test: PMSG test in infantile female rats, orally (serum estradiol)
# Type: in vivo, rat
# Conditions: for Concentration in serum estradiol / % inhibition (against the PMSG control): 10 mg/animal, 2 × p.o., PMSG-treated infantile female rats; for Concentration in serum estradiol: mean with standard deviation, groups of 10; for % inhibition (against the PMSG control): serum estradiol; for effectiveness in oral application: 2×10 mg, PMSG test, in words
# Description: The aromatase activity can be measured by the influence of the estrogen formation stimulated by PMSG. [J. Steroid. Biochem., 7 (1976) 787] Anit-tumor activity in humans of compounds which have a positive effect in the PMSG test is described in The Lancet, 1 Dec. 1984, ppg. 1237-1239.
# In the so-called PMSG test 21-day-old female rats are pretreated subcutaneously every other day for a total of 7 times with 100 IU of PMSG each time. 1 hour before and 8 hours after the last PMSG application (d12) the animals receive the test substance by oral dose. They are killed 24 hours after the last PMSG application. The estradiol is examined radioimmunologically in the serum. The average value of the estradiol concentration in nmol/l with standard deviation is calculated for each group of 10 animals. The significance of the differences from the control group are examined by analysis of variance.
# The percentage inhibition is calculated against the PMSG control.
Structure (SMILES),Concentration in serum estradiol,% inhibition (against the PMSG control),effectiveness in oral application
"C=C1C=C2CC[C@@H]3[C@H](CC[C@]4(C)C(=O)CC[C@@H]34)[C@@]2(C)CC1 (stereo in doubt) [B, 3-methylene-4-androsten-17-one]",6.20 ± 0.80 nmol/L,0%,no effectiveness
"C[C@]12CCC(=O)C(O)=C1CC[C@@H]1[C@@H]2CC[C@]2(C)C(=O)CC[C@@H]12 [A, 4-hydroxy-4-androstene-3,17-dione]",6.08 ± 0.56 nmol/L,0%,no effectiveness
"CSC[C@]12CCC(=CF)C=C1CC[C@@H]1[C@@H]2CC[C@]2(C)C(=O)CC[C@@H]12 [C, 3-fluoromethylene-19-methylthio-4-androsten-17-one]",3.24 ± 0.81 nmol/L,45%,markd inhibition effectiveness
